The numbers were not newly measured in patent publication US20240023554A1, “MICROPARTICLE COMPOSITIONS COMPRISING TRIFLUDIMOXAZIN” (BASF SE, priority 2020, published 2024), which cites them from elsewhere.

The conditions of the data set: background statement.

In the case of `C#CCN1C(=O)C(F)(F)Oc2cc(F)c(-n3c(=O)n(C)c(=S)n(C)c3=O)cc21` [Trifludimoxazin, 1,5-dimethyl-6-thioxo-3-[2,2,7-trifluoro-3-oxo-4-(prop-2-yn-1-yl)-3,4-dihydro-2H-1,4-benzoxazin-6-yl]-1,3,5-triazinane-2,4-dione], the solubility in water result is given as “only sparingly soluble in water”.
